Read-outs that look alike come from different tables or passages of the source. Each block holds one molecule with its values, some of them ahead of it.
Columns and labels:
[1] = tested on: CXF280 Human Colon Carcinoma; assay: Antitumor testing against human colon cancer xenograft CXF280; format: in vivo, BALB/c nu/nu mice; parameters: key to Fecal observation: N: normal feces; L: loose passage; key to % Growth inhibition: NE: Not Effective; conditions: for inhibition in vivo at 1 mmol/kg/day: Exp. 1, 1.0 mmol/kg/day x 21, oral
Method: CXF280 tumor (about 2×2 mm piece) was implanted subcutaneously into BALB/c nu/nu mice (21-22 g) on day 0. When tumor volume became 100 mm^3 on day around 14, the compounds of the invention were orally administered daily for 3 weeks. At one day after the last treatment, tumor volume was calculated.
The percent inhibition of tumor growth given in Table 3 above was calculated from the formula:
% Inhibition ={1-(T-V0)/(C-V0)}×100
V0 =volume of tumor before treatment was started, T=volume of the tumors from the treated group, C=volume of the tumor from the control group.

[2] = Pharmacokinetic profiles in monkeys (plasma 5'-DFUR after oral administration); format: in vivo; conditions: cynomolgous monkeys, metabolite 5'-DFUR in plasma
Method: The compounds of formula (I) were orally administered into groups of 2 to 5 cynomolgous monkeys (3-4 kg). At various times after the administration, plasma was taken for determination of blood concentrations of intact molecules and their active metabolite 5'-DFUR. Metabolites in the plasma were separated by HPLC and their concentrations were calculated.

human liver acylamidase = assay: Susceptibility to human liver acylamidase (crude liver extract, 5'-DFCR formed by HPLC); format: in vitro ADME; conditions: tetrahydrouridine 0.4 mM, 37° C., 60 min
Method: (§1) The N^4 -(substituted-oxycarbonyl)-5'-DFCRs of the invention were incubated with crude extracts of monkey and human liver in the presence of an inhibitor of cytidine deaminase, tetrahydrouridine (0.4 mM) at 37° C. for 60 min. Thereafter, the product 5'-DFCR was separated by HPLC and the enzyme susceptibility was calculated from the amount of the product.

monkey liver acylamidase = assay: Susceptibility to monkey liver acylamidase (crude liver extract, 5'-DFCR formed by HPLC); format: in vitro ADME; conditions: tetrahydrouridine 0.4 mM, 37° C., 60 min
Method: as §1

[3] = Toxicity (LD50), oral administration daily for 21 days in mice; conditions: mouse, in vivo
Method: The toxicity (LD50) of the representative compounds (Example 13,14, and 17) of the present invention was examined by oral administration daily for 21 days in mice. The representative LD50 values obtained from the experiments were more than 500 mg/kg/day.

[4] = Exp. 2, 0.089 mmol/kg/day x 21, oral
[5] = Mus musculus, po, Exp. 1, 0.13 mmol/kg/day x 21, oral, read-out: % Growth inhibition
[6] = Mus musculus, po, Exp. 2, 0.13 mmol/kg/day x 21, oral, read-out: % Growth inhibition
[7] = Exp. 2, 2.25 mmol/kg/day x 21, oral
[8] = Mus musculus, po, Exp. 2, 0.3 mmol/kg/day x 21, oral, read-out: % Growth inhibition
[9] = Mus musculus, po, Exp. 2, 0.67 mmol/kg/day x 21, oral, read-out: % Growth inhibition
[10] = Mus musculus, po, Exp. 2, 1.5 mmol/kg/day x 21, oral, read-out: % Growth inhibition
[11] = Mus musculus, po, Exp. 2, 2.25 mmol/kg/day x 21, oral, read-out: % Growth inhibition
[12] = Exp. 1, 1.5 mmol/kg/day x 21, oral
[13] = Mus musculus, po, Exp. 1, 0.3 mmol/kg/day x 21, oral, read-out: % Growth inhibition
[14] = Mus musculus, po, Exp. 1, 0.67 mmol/kg/day x 21, oral, read-out: % Growth inhibition
[15] = Mus musculus, po, read-out: % Growth inhibition
[16] = Mus musculus, po, Exp. 1, 1.5 mmol/kg/day x 21, oral, read-out: % Growth inhibition
[17] = Exp. 2, 1.5 mmol/kg/day x 21, oral

Plasma 5'-DFUR AUC [2]: 2030 ng·h/mL
Structure (SMILES): CCCOC(=O)Nc1nc(=O)n([C@@H]2O[C@H](C)[C@@H](O)[C@H]2O)cc1F [Example 10, 5'-deoxy-5-fluoro-N^4-(propoxycarbonyl)cytidine]
Fecal observation [1, 7]: N
inhibition in vivo at 0.13 mmol/kg/day [1, 6]: 39%
inhibition in vivo at 0.3 mmol/kg/day [1, 8]: 56%
inhibition in vivo at 0.67 mmol/kg/day [1, 9]: 75%
inhibition in vivo at 1.5 mmol/kg/day [1, 10]: 86%
inhibition in vivo at 2.25 mmol/kg/day [1, 11]: 93%

Acylamidase activity, Human Liver (human liver acylamidase): 190 nmol/mg protein/hr
Plasma 5'-DFUR AUC [2]: 2900 ng·h/mL
Acylamidase activity, Monkey Liver (monkey liver acylamidase): 29 nmol/mg protein/hr
Structure (SMILES): CCCCCOC(=O)Nc1nc(=O)n([C@@H]2O[C@H](C)[C@@H](O)[C@H]2O)cc1F [Example 12, 5'-deoxy-5-fluoro-N^4-(pentyloxycarbonyl)cytidine]
Fecal observation [1, 12]: N
inhibition in vivo at 0.13 mmol/kg/day [1, 5]: 68%
inhibition in vivo at 0.3 mmol/kg/day [1, 13]: 69%
inhibition in vivo at 0.67 mmol/kg/day [1, 14]: 86%
inhibition in vivo at 1 mmol/kg/day [1, 15]: 86%
inhibition in vivo at 1.5 mmol/kg/day [1, 16]: 96%

Acylamidase activity, Human Liver (human liver acylamidase): 160 nmol/mg protein/hr
Acylamidase activity, Monkey Liver (monkey liver acylamidase): < 13 nmol/mg protein/hr
Structure (SMILES): CCCC(CCC)COC(=O)Nc1nc(=O)n([C@@H]2O[C@H](C)[C@@H](O)[C@H]2O)cc1F [Example 25, 5'-deoxy-5-fluoro-N^4-[(2-propylpentyl)oxycarbonyl]cytidine]

Acylamidase activity, Human Liver (human liver acylamidase): 560 nmol/mg protein/hr
Acylamidase activity, Monkey Liver (monkey liver acylamidase): 20 nmol/mg protein/hr
Structure (SMILES): CCCCC(CC)COC(=O)Nc1nc(=O)n([C@@H]2O[C@H](C)[C@@H](O)[C@H]2O)cc1F (stereo partly shown) [Example 26, 5'-deoxy-N^4-[(2-ethylhexyl)oxycarbonyl]-5-fluorocytidine]

Acylamidase activity, Human Liver (human liver acylamidase): 110 nmol/mg protein/hr
Acylamidase activity, Monkey Liver (monkey liver acylamidase): 59 nmol/mg protein/hr
Structure (SMILES): CCCCCCCOC(=O)Nc1nc(=O)n([C@@H]2O[C@H](C)[C@@H](O)[C@H]2O)cc1F [Example 27, 5'-deoxy-5-fluoro-N^4-(heptyloxycarbonyl)cytidine]
Fecal observation [1, 17]: N
Fecal observation [1, 7]: N
inhibition in vivo at 0.13 mmol/kg/day [1, 6]: 26%
inhibition in vivo at 0.3 mmol/kg/day [1, 8]: 72%
inhibition in vivo at 0.67 mmol/kg/day [1, 9]: 84%
inhibition in vivo at 1.5 mmol/kg/day [1, 10]: 94%
inhibition in vivo at 2.25 mmol/kg/day [1, 11]: 103%

Acylamidase activity, Human Liver (human liver acylamidase): 52 nmol/mg protein/hr
Plasma 5'-DFUR AUC [2]: 1400 ng·h/mL
Acylamidase activity, Monkey Liver (monkey liver acylamidase): 25 nmol/mg protein/hr
Structure (SMILES): C[C@H]1O[C@@H](n2cc(F)c(NC(=O)OCC(C)(C)C)nc2=O)[C@H](O)[C@@H]1O [Example 28, 5'-deoxy-5-fluoro-N^4-(neopentyloxycarbonyl)cytidine]

Second part, the molecule before the results:

Structure (SMILES): O=c1[nH]cc(F)c(=O)[nH]1 [Example 5-FU, 5-fluorouracil, reference compound]
Fecal observation ([1]; Exp. 1, 0.089 mmol/kg/day x 21, oral): N
Fecal observation ([1]; Exp. 1, 0.13 mmol/kg/day x 21, oral): N
Fecal observation ([1]; Exp. 1, 0.2 mmol/kg/day x 21, oral): L
% Growth inhibition [1, 4]: NE
Fecal observation [1, 4]: N
Fecal observation ([1]; Exp. 2, 0.13 mmol/kg/day x 21, oral): N
Fecal observation ([1]; Exp. 2, 0.2 mmol/kg/day x 21, oral): L
inhibition in vivo at 0.089 mmol/kg/day ([1]; Mus musculus, po, Exp. 1, 0.089 mmol/kg/day x 21, oral, read-out: % Growth inhibition): 28%
inhibition in vivo at 0.13 mmol/kg/day [1, 5]: 59%
inhibition in vivo at 0.2 mmol/kg/day ([1]; Mus musculus, po, Exp. 1, 0.2 mmol/kg/day x 21, oral, read-out: % Growth inhibition): 79%
inhibition in vivo at 0.13 mmol/kg/day [1, 6]: 20%
inhibition in vivo at 0.2 mmol/kg/day ([1]; Mus musculus, po, Exp. 2, 0.2 mmol/kg/day x 21, oral, read-out: % Growth inhibition): 58%

Structure (SMILES): CCCCOC(=O)Nc1nc(=O)n([C@@H]2O[C@H](C)[C@@H](O)[C@H]2O)cc1F [Example 11, N^4-(butoxycarbonyl)-5'-deoxy-5-fluorocytidine]
Fecal observation [1, 7]: N
inhibition in vivo at 0.13 mmol/kg/day [1, 6]: 46%
inhibition in vivo at 0.3 mmol/kg/day [1, 8]: 72%
inhibition in vivo at 0.67 mmol/kg/day [1, 9]: 84%
inhibition in vivo at 1.5 mmol/kg/day [1, 10]: 95%
inhibition in vivo at 2.25 mmol/kg/day [1, 11]: 100%
Acylamidase activity, Human Liver (human liver acylamidase): 71 nmol/mg protein/hr
Plasma 5'-DFUR AUC [2]: 2060 ng·h/mL
Acylamidase activity, Monkey Liver (monkey liver acylamidase): 20 nmol/mg protein/hr

Structure (SMILES): CC(C)CCOC(=O)Nc1nc(=O)n([C@@H]2O[C@H](C)[C@@H](O)[C@H]2O)cc1F [Example 14, 5'-deoxy-5-fluoro-N^4-(isopentyloxycarbonyl)cytidine]
Fecal observation [1, 17]: N
Fecal observation [1, 7]: N
inhibition in vivo at 0.13 mmol/kg/day [1, 6]: 68%
inhibition in vivo at 0.3 mmol/kg/day [1, 8]: 68%
inhibition in vivo at 0.67 mmol/kg/day [1, 9]: 85%
inhibition in vivo at 1.5 mmol/kg/day [1, 10]: 94%
inhibition in vivo at 2.25 mmol/kg/day [1, 11]: 100%
Acylamidase activity, Human Liver (human liver acylamidase): 74 nmol/mg protein/hr
Plasma 5'-DFUR AUC [2]: 2400 ng·h/mL
Acylamidase activity, Monkey Liver (monkey liver acylamidase): 32 nmol/mg protein/hr
LD50 at 504 h [3]: > 500 mg/kg

Structure (SMILES): CCC(CC)COC(=O)Nc1nc(=O)n([C@@H]2O[C@H](C)[C@@H](O)[C@H]2O)cc1F [Example 15, 5'-deoxy-N^4-[(2-ethylbutoxy)carbonyl]-5-fluorocytidine]
Acylamidase activity, Human Liver (human liver acylamidase): 210 nmol/mg protein/hr
Plasma 5'-DFUR AUC [2]: 2890 ng·h/mL
Acylamidase activity, Monkey Liver (monkey liver acylamidase): 23 nmol/mg protein/hr

Structure (SMILES): C[C@H]1O[C@@H](n2cc(F)c(NC(=O)OCC3CCCCC3)nc2=O)[C@H](O)[C@@H]1O [Example 16, N^4-[(cyclohexylmethoxy)carbonyl]-5'-deoxy-5-fluorocytidine]
Acylamidase activity, Human Liver (human liver acylamidase): 210 nmol/mg protein/hr
Plasma 5'-DFUR AUC [2]: 2520 ng·h/mL
Acylamidase activity, Monkey Liver (monkey liver acylamidase): 33 nmol/mg protein/hr

Structure (SMILES): C[C@H]1O[C@@H](n2cc(F)c(NC(=O)OCCc3ccccc3)nc2=O)[C@H](O)[C@@H]1O [Example 17, 5'-deoxy-5-fluoro-N^4-[(2-phenylethoxy)carbonyl]cytidine]
Acylamidase activity, Human Liver (human liver acylamidase): 160 nmol/mg protein/hr
Plasma 5'-DFUR AUC [2]: 2660 ng·h/mL
Acylamidase activity, Monkey Liver (monkey liver acylamidase): 22 nmol/mg protein/hr
LD50 at 504 h [3]: > 500 mg/kg

Structure (SMILES): C[C@H]1O[C@@H](n2cc(F)c(NC(=O)OCCC3CCCCC3)nc2=O)[C@H](O)[C@@H]1O [Example 20, N^4-[(2-cyclohexylethoxy)carbonyl]-5'-deoxy-5-fluorocytidine]
Acylamidase activity, Human Liver (human liver acylamidase): 320 nmol/mg protein/hr
Acylamidase activity, Monkey Liver (monkey liver acylamidase): 19 nmol/mg protein/hr

Structure (SMILES): C[C@H]1O[C@@H](n2cc(F)c(NC(=O)OCCCC3CCCCC3)nc2=O)[C@H](O)[C@@H]1O [Example 21, N^4-[(3-cyclohexylpropyl)oxycarbonyl]-5'-deoxy-5-fluorocytidine]
Acylamidase activity, Human Liver (human liver acylamidase): 82 nmol/mg protein/hr
Acylamidase activity, Monkey Liver (monkey liver acylamidase): 26 nmol/mg protein/hr

Structure (SMILES): C[C@H]1O[C@@H](n2cc(F)c(NC(=O)OCCCc3ccccc3)nc2=O)[C@H](O)[C@@H]1O [Example 22, 5'-deoxy-5-fluoro-N^4-[(3-phenylpropyl)oxycarbonyl]cytidine]
Acylamidase activity, Human Liver (human liver acylamidase): 110 nmol/mg protein/hr
Acylamidase activity, Monkey Liver (monkey liver acylamidase): 43 nmol/mg protein/hr

Structure (SMILES): CC(C)COC(=O)Nc1nc(=O)n([C@@H]2O[C@H](C)[C@@H](O)[C@H]2O)cc1F [Example 24, 5'-deoxy-5-fluoro-N^4-(isobutoxycarbonyl)cytidine]
Fecal observation [1, 12]: N
inhibition in vivo at 0.13 mmol/kg/day [1, 5]: 37%
inhibition in vivo at 0.3 mmol/kg/day [1, 13]: 64%
inhibition in vivo at 0.67 mmol/kg/day [1, 14]: 75%
inhibition in vivo at 1 mmol/kg/day [1, 15]: 83%
inhibition in vivo at 1.5 mmol/kg/day [1, 16]: 89%
Acylamidase activity, Human Liver (human liver acylamidase): 64 nmol/mg protein/hr
Acylamidase activity, Monkey Liver (monkey liver acylamidase): 18 nmol/mg protein/hr

Structure (SMILES): C[C@H]1O[C@@H](n2cc(F)c(NC(=O)OCCC(C)(C)C)nc2=O)[C@H](O)[C@@H]1O [Example 29, 5'-Deoxy-N^4-[(3,3-dimethylbutoxy)carbonyl]-5-fluorocytidine]
Acylamidase activity, Human Liver (human liver acylamidase): 50 nmol/mg protein/hr
Plasma 5'-DFUR AUC [2]: 2090 ng·h/mL
Acylamidase activity, Monkey Liver (monkey liver acylamidase): 22 nmol/mg protein/hr

Reference: patent US5472949A, “N^4 -(substituted-oxycarbonyl)-5'-deoxy-5-fluorocytidine compounds, compositions and methods of using same” (Hoffmann-La Roche Inc., priority 1992, dated 1995)
